Positions count from the first letter of the chain named. Where “and” joins values, the source holds several entries; their conditions need not be identical. Equal entries are not always repeated.
Experiments:
[1] = target: T1, Y142A mutant mouse 5-HT3ASR (Mus musculus, UniProt P23979, Y143A); test: [^3H]granisetron saturation binding, Y142A receptor; conditions: ± SE
T1 sequence (P23979 24-483 isoform P23979-2 Y143A): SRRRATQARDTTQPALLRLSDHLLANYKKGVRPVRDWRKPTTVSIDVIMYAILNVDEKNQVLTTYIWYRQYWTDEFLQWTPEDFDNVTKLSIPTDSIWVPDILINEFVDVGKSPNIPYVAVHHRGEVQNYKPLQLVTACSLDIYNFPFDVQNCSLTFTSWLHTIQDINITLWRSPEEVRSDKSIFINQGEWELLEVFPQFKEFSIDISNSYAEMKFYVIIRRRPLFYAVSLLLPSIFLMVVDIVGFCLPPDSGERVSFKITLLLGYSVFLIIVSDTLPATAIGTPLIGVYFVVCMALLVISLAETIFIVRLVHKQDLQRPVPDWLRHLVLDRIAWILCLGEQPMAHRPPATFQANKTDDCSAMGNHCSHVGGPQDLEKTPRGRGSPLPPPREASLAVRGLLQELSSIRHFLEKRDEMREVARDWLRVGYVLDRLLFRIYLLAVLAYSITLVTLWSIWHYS

[2] = target: T2, V143A mutant mouse 5-HT3ASR (Mus musculus, UniProt P23979, V144A); test: [^3H]granisetron saturation binding, V143A receptor; conditions: ± SE
T2 sequence (P23979 24-483 isoform P23979-2 V144A): T1 sequence (P23979 24-483 isoform P23979-2 Y143A) with A120Y, V121A

[3] = target: T3, H145A mutant mouse 5-HT3ASR (Mus musculus, UniProt P23979, H146A); test: [^3H]granisetron saturation binding, H145A receptor; conditions: ± SE
T3 sequence (P23979 24-483 isoform P23979-2 H146A): T1 sequence (P23979 24-483 isoform P23979-2 Y143A) with A120Y, H123A

[4] = target: T4, E148A mutant mouse 5-HT3ASR (Mus musculus, UniProt P23979, E149A); test: [^3H]granisetron saturation binding, E148A receptor
T4 sequence (P23979 24-483 isoform P23979-2 E149A): T1 sequence (P23979 24-483 isoform P23979-2 Y143A) with A120Y, E126A

## CN1C2CCCC1CC(NC(=O)c1nn(C)c3ccccc13)C2 (stereo not drawn) [[^3H]granisetron]
[1]
  Bmax: 0.97 ± .14 pmol/mg protein
  Hill coefficient (n): 1.6 ± 0.27
[2]
  Bmax: 1.1 ± .04 pmol/mg protein
  Hill coefficient (n): 0.97 ± 0.13
[3]
  Bmax: 0.81 ± .07 pmol/mg protein
  Hill coefficient (n): 1.38 ± 0.17
[4]; E148A vs wildtype
  decrease in binding affinity (increased Kd), mutant vs wildtype: 5.3 fold
[4]; E148A, ± SE
  Bmax: 5.5 pmol/mg protein and 5.5 ± 1.2 pmol/mg protein
  Hill coefficient (n): 0.93 ± 0.19

Reference: PMC117120 (BMC Biochemistry, 2002)
